{"source": "ChEMBL document CHEMBL4393656", "about": "“Cationic biaryl 1,2,3-triazolyl peptidomimetic amphiphiles targeting Clostridioides (Clostridium) difficile: Synthesis, antibacterial evaluation and an in vivo C. difficile infection model” (Eur J Med Chem, 2019)"}
{"system": "Staphylococcus aureus", "assay": "Growth inhibition of Staphylococcus aureus ATCC 29213 incubated in MHB broth for 24 hrs", "type": "organism-based", "details": "not given", "units": {"MIC": "µg/mL"}}
{"compound": "CC(C)CCOc1ccc2ccccc2c1-c1c(OCC(=O)N[C@H](CCCNC(=N)N)C(=O)NCCc2ccc(F)cc2)ccc2ccccc12.Cl", "MIC": "> 128"}
{"compound": "CC(C)CCOc1ccccc1-c1ccccc1OCc1cn([C@H](CCCNC(=N)N)C(=O)Nc2ccccc2)nn1.Cl", "MIC": 2}
{"compound": "CC(C)CCOc1ccccc1-c1ccccc1OCc1cn([C@H](CCCNC(=N)N)C(=O)N[C@H](CCCCN)Cn2cc(Cc3ccccc3)nn2)nn1.Cl.Cl", "MIC": 8}
{"compound": "CC(C)CCOc1ccccc1-c1ccccc1OCc1cn([C@H](CCCNC(=N)N)C(=O)N[C@H](CCCCN)Cn2cc(C3CCCCC3)nn2)nn1.Cl.Cl", "MIC": 8}
{"compound": "CC(C)CCOc1ccc2ccccc2c1-c1c(OCc2cn([C@H](CCCCN)C(=O)N[C@H](CCCNC(=N)N)C(=O)N3CCCCC3)nn2)ccc2ccccc12.Cl.Cl", "MIC": 8}
{"system": "Enterococcus faecalis", "assay": "Growth inhibition of Enterococcus faecalis ATCC 29212 incubated in MHB broth for 24 hrs", "type": "organism-based", "details": "not given", "units": {"MIC": "µg/mL"}}
{"compound": "CC(C)CCOc1ccc2ccccc2c1-c1c(OCC(=O)N[C@H](CCCNC(=N)N)C(=O)NCCc2ccc(F)cc2)ccc2ccccc12.Cl", "MIC": "> 128"}
{"compound": "CC(C)CCOc1ccccc1-c1ccccc1OCc1cn([C@H](CCCNC(=N)N)C(=O)Nc2ccccc2)nn1.Cl", "MIC": 2}
{"compound": "CC(C)CCOc1ccccc1-c1ccccc1OCc1cn([C@H](CCCNC(=N)N)C(=O)N[C@H](CCCCN)Cn2cc(Cc3ccccc3)nn2)nn1.Cl.Cl", "MIC": 8}
{"compound": "CC(C)CCOc1ccccc1-c1ccccc1OCc1cn([C@H](CCCNC(=N)N)C(=O)N[C@H](CCCCN)Cn2cc(C3CCCCC3)nn2)nn1.Cl.Cl", "MIC": 8}
{"compound": "CC(C)CCOc1ccc2ccccc2c1-c1c(OCc2cn([C@H](CCCCN)C(=O)N[C@H](CCCNC(=N)N)C(=O)N3CCCCC3)nn2)ccc2ccccc12.Cl.Cl", "MIC": 8}
{"system": "Streptococcus pneumoniae", "assay": "Growth inhibition of Streptococcus pneumoniae ATCC 49619 incubated in MHB medium with lysed horse blood and 5% CO2 for 24 hrs", "type": "organism-based", "details": "not given", "units": {"MIC": "µg/mL"}}
{"compound": "CC(C)CCOc1ccc2ccccc2c1-c1c(OCC(=O)N[C@H](CCCNC(=N)N)C(=O)NCCc2ccc(F)cc2)ccc2ccccc12.Cl", "MIC": "> 128"}
{"compound": "CC(C)CCOc1ccccc1-c1ccccc1OCc1cn([C@H](CCCNC(=N)N)C(=O)Nc2ccccc2)nn1.Cl", "MIC": 2}
{"compound": "CC(C)CCOc1ccccc1-c1ccccc1OCc1cn([C@H](CCCNC(=N)N)C(=O)N[C@H](CCCCN)Cn2cc(Cc3ccccc3)nn2)nn1.Cl.Cl", "MIC": 4}
{"compound": "CC(C)CCOc1ccccc1-c1ccccc1OCc1cn([C@H](CCCNC(=N)N)C(=O)N[C@H](CCCCN)Cn2cc(C3CCCCC3)nn2)nn1.Cl.Cl", "MIC": 2}
{"compound": "CC(C)CCOc1ccc2ccccc2c1-c1c(OCc2cn([C@H](CCCCN)C(=O)N[C@H](CCCNC(=N)N)C(=O)N3CCCCC3)nn2)ccc2ccccc12.Cl.Cl", "MIC": 8}
{"system": "Clostridioides difficile", "assay": "Antibacterial activity against Clostridium difficile ATCC 700057 incubated for 2 to 4 hrs in pre-reduced brucella broth supplemented with haemin/vitamin K and further incubation in anaerobic condition for 48 hrs", "type": "functional", "details": "not given", "units": {"MIC": "µg/mL"}}
{"compound": "CC(C)CCOc1ccc2ccccc2c1-c1c(OCC(=O)N[C@H](CCCNC(=N)N)C(=O)NCCc2ccc(F)cc2)ccc2ccccc12.Cl", "MIC": "> 128"}
{"compound": "CC(C)CCOc1ccccc1-c1ccccc1OCc1cn([C@H](CCCNC(=N)N)C(=O)Nc2ccccc2)nn1.Cl", "MIC": 16}
{"compound": "CC(C)CCOc1ccccc1-c1ccccc1OCc1cn([C@H](CCCNC(=N)N)C(=O)N[C@H](CCCCN)Cn2cc(Cc3ccccc3)nn2)nn1.Cl.Cl", "MIC": 32}
{"compound": "CC(C)CCOc1ccccc1-c1ccccc1OCc1cn([C@H](CCCNC(=N)N)C(=O)N[C@H](CCCCN)Cn2cc(C3CCCCC3)nn2)nn1.Cl.Cl", "MIC": 8}
{"compound": "CC(C)CCOc1ccc2ccccc2c1-c1c(OCc2cn([C@H](CCCCN)C(=O)N[C@H](CCCNC(=N)N)C(=O)N3CCCCC3)nn2)ccc2ccccc12.Cl.Cl", "MIC": 16}
{"system": "Clostridioides difficile", "assay": "Antibacterial activity against Clostridium difficile NSW132 RT027 incubated for 2 to 4 hrs in pre-reduced brucella broth supplemented with haemin/vitamin K and further incubation in anaerobic condition for 48 hrs", "type": "functional", "details": "not given", "units": {"MIC": "µg/mL"}}
{"compound": "CC(C)CCOc1ccc2ccccc2c1-c1c(OCC(=O)N[C@H](CCCNC(=N)N)C(=O)NCCc2ccc(F)cc2)ccc2ccccc12.Cl", "MIC": 64}
{"compound": "CC(C)CCOc1ccccc1-c1ccccc1OCc1cn([C@H](CCCNC(=N)N)C(=O)Nc2ccccc2)nn1.Cl", "MIC": 32}
{"compound": "CC(C)CCOc1ccccc1-c1ccccc1OCc1cn([C@H](CCCNC(=N)N)C(=O)N[C@H](CCCCN)Cn2cc(Cc3ccccc3)nn2)nn1.Cl.Cl", "MIC": 16}
{"compound": "CC(C)CCOc1ccccc1-c1ccccc1OCc1cn([C@H](CCCNC(=N)N)C(=O)N[C@H](CCCCN)Cn2cc(C3CCCCC3)nn2)nn1.Cl.Cl", "MIC": 16}
{"compound": "CC(C)CCOc1ccc2ccccc2c1-c1c(OCc2cn([C@H](CCCCN)C(=O)N[C@H](CCCNC(=N)N)C(=O)N3CCCCC3)nn2)ccc2ccccc12.Cl.Cl", "MIC": 32}
{"system": "Escherichia coli", "assay": "Growth inhibition of Escherichia coli ATCC 25922 incubated for 18 hrs", "type": "organism-based", "details": "not given", "units": {"MIC": "µg/mL"}}
{"compound": "CC(C)CCOc1ccc2ccccc2c1-c1c(OCC(=O)N[C@H](CCCNC(=N)N)C(=O)NCCc2ccc(F)cc2)ccc2ccccc12.Cl", "MIC": "> 32"}
{"compound": "CC(C)CCOc1ccccc1-c1ccccc1OCc1cn([C@H](CCCNC(=N)N)C(=O)Nc2ccccc2)nn1.Cl", "MIC": "> 32"}
{"compound": "CC(C)CCOc1ccccc1-c1ccccc1OCc1cn([C@H](CCCNC(=N)N)C(=O)N[C@H](CCCCN)Cn2cc(Cc3ccccc3)nn2)nn1.Cl.Cl", "MIC": "> 32"}
{"compound": "CC(C)CCOc1ccccc1-c1ccccc1OCc1cn([C@H](CCCNC(=N)N)C(=O)N[C@H](CCCCN)Cn2cc(C3CCCCC3)nn2)nn1.Cl.Cl", "MIC": 16}
{"compound": "CC(C)CCOc1ccc2ccccc2c1-c1c(OCc2cn([C@H](CCCCN)C(=O)N[C@H](CCCNC(=N)N)C(=O)N3CCCCC3)nn2)ccc2ccccc12.Cl.Cl", "MIC": 32}
{"system": "Klebsiella pneumoniae", "assay": "Growth inhibition of Klebsiella pneumoniae ATCC 700603 incubated for 18 hrs", "type": "organism-based", "details": "not given", "units": {"MIC": "µg/mL"}}
{"compound": "CC(C)CCOc1ccc2ccccc2c1-c1c(OCC(=O)N[C@H](CCCNC(=N)N)C(=O)NCCc2ccc(F)cc2)ccc2ccccc12.Cl", "MIC": "> 32"}
{"compound": "CC(C)CCOc1ccccc1-c1ccccc1OCc1cn([C@H](CCCNC(=N)N)C(=O)Nc2ccccc2)nn1.Cl", "MIC": "> 32"}
{"compound": "CC(C)CCOc1ccccc1-c1ccccc1OCc1cn([C@H](CCCNC(=N)N)C(=O)N[C@H](CCCCN)Cn2cc(Cc3ccccc3)nn2)nn1.Cl.Cl", "MIC": 32}
{"compound": "CC(C)CCOc1ccccc1-c1ccccc1OCc1cn([C@H](CCCNC(=N)N)C(=O)N[C@H](CCCCN)Cn2cc(C3CCCCC3)nn2)nn1.Cl.Cl", "MIC": 16}
{"compound": "CC(C)CCOc1ccc2ccccc2c1-c1c(OCc2cn([C@H](CCCCN)C(=O)N[C@H](CCCNC(=N)N)C(=O)N3CCCCC3)nn2)ccc2ccccc12.Cl.Cl", "MIC": 16}
{"system": "Acinetobacter baumannii", "assay": "Growth inhibition of Acinetobacter baumannii ATCC 19606 incubated for 18 hrs without shaking by absorbance based monochromator plate reader analysis", "type": "organism-based, ATCC 19606 = CIP 70.34 = JCM 6841", "details": "in vitro", "units": {"MIC": "µg/mL"}}
{"compound": "CC(C)CCOc1ccc2ccccc2c1-c1c(OCC(=O)N[C@H](CCCNC(=N)N)C(=O)NCCc2ccc(F)cc2)ccc2ccccc12.Cl", "MIC": "> 32"}
{"compound": "CC(C)CCOc1ccccc1-c1ccccc1OCc1cn([C@H](CCCNC(=N)N)C(=O)Nc2ccccc2)nn1.Cl", "MIC": "> 32"}
{"compound": "CC(C)CCOc1ccccc1-c1ccccc1OCc1cn([C@H](CCCNC(=N)N)C(=O)N[C@H](CCCCN)Cn2cc(Cc3ccccc3)nn2)nn1.Cl.Cl", "MIC": 32}
{"compound": "CC(C)CCOc1ccccc1-c1ccccc1OCc1cn([C@H](CCCNC(=N)N)C(=O)N[C@H](CCCCN)Cn2cc(C3CCCCC3)nn2)nn1.Cl.Cl", "MIC": 16}
{"compound": "CC(C)CCOc1ccc2ccccc2c1-c1c(OCc2cn([C@H](CCCCN)C(=O)N[C@H](CCCNC(=N)N)C(=O)N3CCCCC3)nn2)ccc2ccccc12.Cl.Cl", "MIC": 8}
{"system": "Pseudomonas aeruginosa", "assay": "Growth inhibition of Pseudomonas aeruginosa ATCC 27853 incubated for 18 hrs", "type": "organism-based", "details": "not given", "units": {"MIC": "µg/mL"}}
{"compound": "CC(C)CCOc1ccc2ccccc2c1-c1c(OCC(=O)N[C@H](CCCNC(=N)N)C(=O)NCCc2ccc(F)cc2)ccc2ccccc12.Cl", "MIC": "> 32"}
{"compound": "CC(C)CCOc1ccccc1-c1ccccc1OCc1cn([C@H](CCCNC(=N)N)C(=O)Nc2ccccc2)nn1.Cl", "MIC": "> 32"}
{"compound": "CC(C)CCOc1ccccc1-c1ccccc1OCc1cn([C@H](CCCNC(=N)N)C(=O)N[C@H](CCCCN)Cn2cc(Cc3ccccc3)nn2)nn1.Cl.Cl", "MIC": 16}
{"compound": "CC(C)CCOc1ccccc1-c1ccccc1OCc1cn([C@H](CCCNC(=N)N)C(=O)N[C@H](CCCCN)Cn2cc(C3CCCCC3)nn2)nn1.Cl.Cl", "MIC": 8}
{"compound": "CC(C)CCOc1ccc2ccccc2c1-c1c(OCc2cn([C@H](CCCCN)C(=O)N[C@H](CCCNC(=N)N)C(=O)N3CCCCC3)nn2)ccc2ccccc12.Cl.Cl", "MIC": 16}
{"system": "Staphylococcus aureus", "assay": "Growth inhibition of methicillin-resistant Staphylococcus aureus ATCC 43300 incubated for 18 hrs", "type": "organism-based", "details": "not given", "units": {"MIC": "µg/mL"}}
{"compound": "CC(C)CCOc1ccc2ccccc2c1-c1c(OCC(=O)N[C@H](CCCNC(=N)N)C(=O)NCCc2ccc(F)cc2)ccc2ccccc12.Cl", "MIC": 4}
{"compound": "CC(C)CCOc1ccccc1-c1ccccc1OCc1cn([C@H](CCCNC(=N)N)C(=O)Nc2ccccc2)nn1.Cl", "MIC": 8}
{"compound": "CC(C)CCOc1ccccc1-c1ccccc1OCc1cn([C@H](CCCNC(=N)N)C(=O)N[C@H](CCCCN)Cn2cc(Cc3ccccc3)nn2)nn1.Cl.Cl", "MIC": 8}
{"compound": "CC(C)CCOc1ccccc1-c1ccccc1OCc1cn([C@H](CCCNC(=N)N)C(=O)N[C@H](CCCCN)Cn2cc(C3CCCCC3)nn2)nn1.Cl.Cl", "MIC": 4}
{"compound": "CC(C)CCOc1ccc2ccccc2c1-c1c(OCc2cn([C@H](CCCCN)C(=O)N[C@H](CCCNC(=N)N)C(=O)N3CCCCC3)nn2)ccc2ccccc12.Cl.Cl", "MIC": 2}
{"system": "not listed separately", "assay": "Cytotoxicity against HEK293 cells assessed as decrease in cell viability after 20 hrs by resazurin dye-based fluorescence assay", "details": "human", "units": {"CC50 at 20 h": "µg/mL"}}
{"compound": "CC(C)CCOc1ccc2ccccc2c1-c1c(OCC(=O)N[C@H](CCCNC(=N)N)C(=O)NCCc2ccc(F)cc2)ccc2ccccc12.Cl", "CC50 at 20 h": "> 32"}
{"compound": "CC(C)CCOc1ccccc1-c1ccccc1OCc1cn([C@H](CCCNC(=N)N)C(=O)Nc2ccccc2)nn1.Cl", "CC50 at 20 h": 21.6}
{"compound": "CC(C)CCOc1ccccc1-c1ccccc1OCc1cn([C@H](CCCNC(=N)N)C(=O)N[C@H](CCCCN)Cn2cc(Cc3ccccc3)nn2)nn1.Cl.Cl", "CC50 at 20 h": "> 32"}
{"compound": "CC(C)CCOc1ccccc1-c1ccccc1OCc1cn([C@H](CCCNC(=N)N)C(=O)N[C@H](CCCCN)Cn2cc(C3CCCCC3)nn2)nn1.Cl.Cl", "CC50 at 20 h": "> 32"}
{"compound": "CC(C)CCOc1ccc2ccccc2c1-c1c(OCc2cn([C@H](CCCCN)C(=O)N[C@H](CCCNC(=N)N)C(=O)N3CCCCC3)nn2)ccc2ccccc12.Cl.Cl", "CC50 at 20 h": 16.8}
